One may read the Kd as the equilibrium constant for the complex coming apart.

Our source for the Kd values is ChEMBL document CHEMBL3991601, “The target landscape of clinical kinase drugs” (Science, 2017).

Molecules are shown by their SMILES. The source made the active and inactive calls.

Assay [1] has as its target Adenosine kinase (Homo sapiens, UniProt P55263).
Assay [2] deals with T1, Dual specificity mitogen-activated protein kinase kinase 5 (Homo sapiens, UniProt Q13163).
T1 sequence (Q13163 whole entry): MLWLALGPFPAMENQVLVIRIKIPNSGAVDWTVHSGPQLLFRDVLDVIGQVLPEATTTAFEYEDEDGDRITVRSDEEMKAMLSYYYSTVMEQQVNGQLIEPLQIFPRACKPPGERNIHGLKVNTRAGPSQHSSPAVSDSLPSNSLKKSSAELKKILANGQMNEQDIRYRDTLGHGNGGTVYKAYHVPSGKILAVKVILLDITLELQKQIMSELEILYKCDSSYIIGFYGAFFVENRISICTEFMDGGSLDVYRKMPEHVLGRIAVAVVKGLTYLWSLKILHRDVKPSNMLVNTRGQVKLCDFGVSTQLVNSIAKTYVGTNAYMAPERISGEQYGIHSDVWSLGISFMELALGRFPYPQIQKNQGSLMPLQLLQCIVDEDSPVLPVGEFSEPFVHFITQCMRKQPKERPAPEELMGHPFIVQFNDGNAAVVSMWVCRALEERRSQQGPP

The target of assay [3] is T2, Mitogen-activated protein kinase kinase kinase 6 (Homo sapiens, UniProt O95382).
T2 sequence (O95382 whole entry): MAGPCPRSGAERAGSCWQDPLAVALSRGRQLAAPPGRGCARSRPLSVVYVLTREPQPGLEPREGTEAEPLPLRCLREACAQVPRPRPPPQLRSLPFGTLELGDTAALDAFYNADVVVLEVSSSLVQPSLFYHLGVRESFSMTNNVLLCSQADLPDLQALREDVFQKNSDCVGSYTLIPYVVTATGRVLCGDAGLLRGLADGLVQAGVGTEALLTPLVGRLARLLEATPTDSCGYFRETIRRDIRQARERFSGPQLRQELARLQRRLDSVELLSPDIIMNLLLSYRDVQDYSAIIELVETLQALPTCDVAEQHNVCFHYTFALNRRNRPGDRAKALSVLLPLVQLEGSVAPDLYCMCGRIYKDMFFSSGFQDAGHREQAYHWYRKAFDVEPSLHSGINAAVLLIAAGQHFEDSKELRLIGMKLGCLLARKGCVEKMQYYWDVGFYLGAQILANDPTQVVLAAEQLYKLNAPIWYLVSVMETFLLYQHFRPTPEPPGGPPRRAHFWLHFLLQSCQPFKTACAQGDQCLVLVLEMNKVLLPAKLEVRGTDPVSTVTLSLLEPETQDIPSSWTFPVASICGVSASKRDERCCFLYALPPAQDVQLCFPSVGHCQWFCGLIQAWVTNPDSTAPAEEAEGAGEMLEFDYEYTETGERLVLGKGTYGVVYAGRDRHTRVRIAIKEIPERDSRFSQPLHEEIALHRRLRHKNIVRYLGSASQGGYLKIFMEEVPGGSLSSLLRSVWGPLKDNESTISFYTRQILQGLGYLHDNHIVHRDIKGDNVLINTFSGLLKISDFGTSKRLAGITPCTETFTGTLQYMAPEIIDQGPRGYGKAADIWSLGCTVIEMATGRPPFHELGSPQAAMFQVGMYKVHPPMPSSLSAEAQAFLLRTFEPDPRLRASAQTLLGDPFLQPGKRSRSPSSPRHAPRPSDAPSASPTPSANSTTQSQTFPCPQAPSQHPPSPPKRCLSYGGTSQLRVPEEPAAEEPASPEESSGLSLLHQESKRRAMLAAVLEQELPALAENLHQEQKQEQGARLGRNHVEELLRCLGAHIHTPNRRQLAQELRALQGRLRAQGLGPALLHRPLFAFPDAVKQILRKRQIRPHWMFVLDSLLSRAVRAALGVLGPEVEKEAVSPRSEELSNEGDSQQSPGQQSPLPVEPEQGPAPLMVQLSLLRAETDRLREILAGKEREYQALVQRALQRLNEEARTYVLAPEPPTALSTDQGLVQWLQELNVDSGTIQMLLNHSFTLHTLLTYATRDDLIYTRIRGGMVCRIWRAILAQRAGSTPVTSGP

The target in assay [4] is T3, Dynamin-like GTPase OPA1, mitochondrial (Homo sapiens, UniProt O60313).
T3 sequence (O60313 whole entry): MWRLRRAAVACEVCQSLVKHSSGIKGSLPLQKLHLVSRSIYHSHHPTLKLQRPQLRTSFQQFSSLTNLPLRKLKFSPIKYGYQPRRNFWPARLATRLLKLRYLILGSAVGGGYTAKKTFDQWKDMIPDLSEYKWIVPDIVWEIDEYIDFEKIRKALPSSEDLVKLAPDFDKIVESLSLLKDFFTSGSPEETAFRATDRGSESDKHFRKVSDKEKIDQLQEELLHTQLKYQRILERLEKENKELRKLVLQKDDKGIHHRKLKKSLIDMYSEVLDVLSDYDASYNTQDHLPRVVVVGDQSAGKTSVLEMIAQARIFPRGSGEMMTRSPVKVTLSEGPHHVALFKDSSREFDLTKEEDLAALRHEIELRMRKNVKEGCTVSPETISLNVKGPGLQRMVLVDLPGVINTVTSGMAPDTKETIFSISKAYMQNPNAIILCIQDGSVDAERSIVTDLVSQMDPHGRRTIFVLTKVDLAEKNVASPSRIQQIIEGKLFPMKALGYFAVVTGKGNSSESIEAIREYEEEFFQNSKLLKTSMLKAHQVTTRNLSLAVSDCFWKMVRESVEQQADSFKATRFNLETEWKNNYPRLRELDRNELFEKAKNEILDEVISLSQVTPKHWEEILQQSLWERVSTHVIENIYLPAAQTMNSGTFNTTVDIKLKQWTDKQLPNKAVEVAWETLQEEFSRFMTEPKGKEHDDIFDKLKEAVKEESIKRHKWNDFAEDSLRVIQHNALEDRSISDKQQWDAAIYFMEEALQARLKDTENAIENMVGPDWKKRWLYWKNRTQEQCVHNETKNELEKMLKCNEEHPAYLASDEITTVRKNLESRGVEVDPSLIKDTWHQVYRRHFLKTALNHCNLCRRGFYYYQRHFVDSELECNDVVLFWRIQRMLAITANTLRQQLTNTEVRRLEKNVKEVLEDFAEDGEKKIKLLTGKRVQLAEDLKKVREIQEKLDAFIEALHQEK
Also: in the data inactive means no Kd found up to 30 µM.

Sequence of Adenosine kinase (P55263 whole entry): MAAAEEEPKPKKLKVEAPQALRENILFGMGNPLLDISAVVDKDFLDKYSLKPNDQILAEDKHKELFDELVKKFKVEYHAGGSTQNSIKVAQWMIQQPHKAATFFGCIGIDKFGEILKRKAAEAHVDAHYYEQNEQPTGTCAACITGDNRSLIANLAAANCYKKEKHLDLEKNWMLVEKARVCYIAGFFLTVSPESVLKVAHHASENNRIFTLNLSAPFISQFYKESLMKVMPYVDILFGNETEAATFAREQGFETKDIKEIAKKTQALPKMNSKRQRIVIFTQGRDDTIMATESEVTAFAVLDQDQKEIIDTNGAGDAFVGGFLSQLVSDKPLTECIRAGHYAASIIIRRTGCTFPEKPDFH

Take `S=C(NCc1ccc2c(c1)OCO2)N1CCN(c2ncnc3c2oc2ccccc23)CC1` [AMUVATINIB]: the Kd in assay [1], in assay [2], in assay [3] and in assay [4] was > 30 µM (inactive) in each case.

Regarding `COc1cc(F)c(F)c(Nc2ccc(I)cc2F)c1NS(=O)(=O)C1(C[C@H](O)CO)CC1` [REFAMETINIB], the Kd in assay [1], in assay [2], in assay [3] and in assay [4] was > 30 µM (inactive) each time.

Regarding `Cc1ccc(C(=O)Nc2ccc(Oc3cc4cnn(C)c4cc3-c3cn[nH]c3)c(F)c2)c(=O)n1-c1ccc(F)cc1` [MERESTINIB], the Kd in assay [1], in assay [2], in assay [3] and in assay [4] was > 30 µM (inactive) in each case.

As for `C=CC(=O)Nc1cccc(Nc2nc(Nc3ccc(N4CCN(C(C)=O)CC4)cc3OC)ncc2C(F)(F)F)c1` [ROCILETINIB], the Kd in assay [1], in assay [2], in assay [3] and in assay [4] was > 30 µM (inactive) each time.

In the case of `C=CC(=O)Nc1cc(Nc2nccc(-c3cn(C)c4ccccc34)n2)c(OC)cc1N(C)CCN(C)C` [OSIMERTINIB], the Kd in assay [1], in assay [2], in assay [3] and in assay [4] was > 30 µM (inactive) each time.

Turning to `COc1cc(Nc2ncc(F)c(Nc3ccc4c(n3)N(COP(=O)(O)O)C(=O)C(C)(C)O4)n2)cc(OC)c1OC` [FOSTAMATINIB], the Kd in assay [1], in assay [2], in assay [3] and in assay [4] was > 30 µM (inactive) each time.

Take `O=S(=O)(c1cccc2cnccc12)N1CCCNCC1` [FASUDIL]: the Kd in assay [1], in assay [2], in assay [3] and in assay [4] was > 30 µM (inactive) each time.

Regarding `NC[C@@](O)(c1ccc(Cl)cc1)c1ccc(-c2cn[nH]c2)cc1` [AT-13148], the Kd in assay [1], in assay [2], in assay [3] and in assay [4] was > 30 µM (inactive) each time.

In the case of `O=S(=O)(c1cccc2c(O)nccc12)N1CCCNCC1` [HYDROXYFASUDIL], the Kd in assay [1], in assay [2], in assay [3] and in assay [4] was > 30 µM (inactive) throughout.

Regarding `O=C(O)c1ccc2c(c1)nc(Nc1cccc(Cl)c1)c1ccncc12` [SILMITASERTIB], the Kd in assay [1], in assay [2], in assay [3] and in assay [4] was > 30 µM (inactive) in each case.

Turning to `CCc1nc(C(N)=O)c(Nc2ccc(N3CCC(N4CCN(C)CC4)CC3)c(OC)c2)nc1NC1CCOCC1` [GILTERITINIB], the Kd in assay [1] is > 30 µM (inactive); in assay [2], 2.04 µM (active); in assay [3], > 30 µM (inactive); in assay [4], > 30 µM (inactive).

Regarding `Cc1c(NC(=O)OC[C@@H]2COCCN2)cn2ncnc(Nc3ccc4c(cnn4Cc4cccc(F)c4)c3)c12` [AC-480], the Kd was > 30 µM (inactive) in assay [1], 5.93 µM in assay [2], > 30 µM (inactive) in assay [3] and > 30 µM (inactive) in assay [4].

In the case of `O[C@H]1CC[C@H](Nc2ncc3nc(Nc4c(F)cc(F)cc4F)n([C@H]4CCOC4)c3n2)CC1` [TANZISERTIB], the Kd in assay [1], in assay [2], in assay [3] and in assay [4] was > 30 µM (inactive) in each case.

On to `C[C@]1(O)C[C@@H](c2nc(-c3ccc4ccc(-c5ccccc5)nc4c3)c3c(N)nccn32)C1` [LINSITINIB], for which the Kd in assay [1] was > 30 µM (inactive); in assay [2], 6.56 µM (active); in assay [3], > 30 µM (inactive); in assay [4] it was > 30 µM (inactive).

On to `Cn1c(=O)n(-c2ccc(C(C)(C)C#N)cc2)c2c3cc(-c4cnc5ccccc5c4)ccc3ncc21` [DACTOLISIB], for which the Kd in assay [1], in assay [2], in assay [3] and in assay [4] was > 30 µM (inactive) each time.
